Reference: patent US10889553B2, “Asymmetric triazole benzamide derivatives and the compositions and methods of treatment regarding the same” (NysnoBio Ireland DAC, priority 2017, dated 2021)

How the values were obtained:
Experiment in all cases: Cancer cell proliferation assay (acid phosphatase)
Assay type in all cases: cell-based
[1] = system: HCT-116 (colon); settings: Homo sapiens, HCT-116; Table 6E; read-out: Proliferation IC50 (nM) CRC HCT-116
In short: (§1)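 Cells seeded at 4×10^4 cells/ml were incubated overnight at 37° C., 5% CO2, then exposed to compound at varying concentrations in triplicate for 72 hrs. Proliferation was read by acid phosphatase assay (p-nitrophenol phosphate, pH 5.5, 2 hours, 405 nm minus 620 nm) as percent inhibition versus DMSO controls.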

[2] = system: JEKO-1 (lymophoma); settings: Homo sapiens, Table 6E, read-out: Proliferation IC50 (nM) Mantle Cell Jeko-1
In short: as §1

[3] = system: Mantle Cell Mino; settings: Homo sapiens, Table 6E
In short: as §1

[4] = system: Ovarian (A2780); settings: Homo sapiens, Table 6E
In short: as §1

[5] = system: Ovarian (OAW42); settings: Homo sapiens, OAW-42; Table 6E
In short: as §1

[6] = system: TOV-112D (ovarian); settings: Homo sapiens, TOV112D; Table 6E; read-out: Proliferation IC50 (nM) Ovarian TOV112D
In short: as §1

[7] = system: TOV-21G (ovarian); settings: Homo sapiens, TOV21G; Table 6E; read-out: Proliferation IC50 (nM) Ovarian TOV21G
In short: as §1

`Cc1ccccc1C(=O)Nc1nc(NC(=O)c2ccccc2C)n(-c2ccccc2)n1` [Compound F, 2-methyl-N-[5-[(2-methylbenzoyl)amino]-1-phenyl-1,2,4-triazol-3-yl]benzamide] gave an IC50 [1] of 1300 nM, an IC50 [2] of over 2500 nM and an IC50 [3] of 884 nM. For the same compound, the IC50 [4] was 1300 nM, the IC50 [5] was over 2500 nM and the IC50 [6] was 850 nM. The IC50 [7] was 1500 nM.
